From patent publication EP0172919A1, “CEPHALOSPORIN DERIVATIVES, PROCESS FOR THEIR PREPARATION, AND THEIR PHARMACEUTICAL USE” (TEIJIN LIMITED, priority 1984, dated 1985) come the findings set out here.

Experiment [1] has as its system Butilus subtilis ATCC6633. The experiment can be described thus: In vitro antibacterial activity, two-fold agar-plate dilution method (MIC). The class given is cell-based. Particulars: 37°C for 16 hours. How it is done: (§1) In vitro antibacterial activity was determined by the two-fold agar-plate dillution method.
(§2) One loopful of an overnight culture of each test starin in Trypticase-soy broth (10^6 viable cells per mt) was streaked on heart infusion agar (Muller-Hinton Agar) containing graded concentrations of representative test compound, and the minimal inhibitory concentration (MIC) was expressed in terms of µg/ml after incubation at 37°C for 16 hours.

In experiment [2] the test system is Salmonera schottmuelleri 8001. Described as above. The class given is cell-based. Particulars: 37°C for 16 hours. The protocol:
as §1, §2

For experiment [3], the system named is Escherichia coli K-12C-600. The description is as above. In kind it is cell-based. Particulars: K12C600, 37°C for 16 hours. The protocol:
as §1, §2

The subject of experiment [4] is Staphyrococcus aureus MS 353. The experiment is described as above. Particulars: Staphyrococcus aureus MS 353; agar dilution, 37°C for 16 hours; read-out: MIC. In kind it is cell-based. The protocol:
as §1, §2

Experiment [5] has as its system Staphyrococcus aureus FDA209JC-1. The experiment is described as above. In kind it is cell-based. Particulars: Staphyrococcus aureus FDA209JC-1; agar dilution, 37°C for 16 hours; read-out: MIC. How it is done: as §1, §2
For experiment [6], the system named is Salmonera typhimurium IID 971. The experiment is described as above. In kind it is cell-based. Particulars: 37°C for 16 hours. How it is done: as §1, §2
Experiment [7] deals with Staphyrococcus pyogenes COOK. The description is as above. The class given is cell-based. Particulars: Staphyrococcus pyogenes COOK; agar dilution, 37°C for 16 hours; read-out: MIC. The protocol: as §1, §2
The test system of experiment [8] is Micrococcus luteus ATCC9341. The description is as above. In kind it is cell-based. Particulars: Micrococcus luteus ATCC9341; agar dilution, 37°C for 16 hours; read-out: MIC. The protocol: as §1, §2
In experiment [9] the test system is Pseudomonas aeruginosa PAO1. The experiment is described as above. The class given is cell-based. Particulars: Pseudomonas aeruginosa PAO1; agar dilution, 37°C for 16 hours; read-out: MIC. The protocol: as §1, §2
The subject of experiment [10] is Pseudomonas aeruginosa NCTC10490. The description is as above. In kind it is cell-based. Particulars: Pseudomonas aeruginosa NCTC10490; agar dilution, 37°C for 16 hours; read-out: MIC. How it is done:
as §1, §2

For experiment [11], the system named is Staphyrococcus Terajima. Described as above. The class given is cell-based. Particulars: Staphyrococcus Terajima; agar dilution, 37°C for 16 hours; read-out: MIC. The protocol: as §1, §2
(§3) In vitro antibacterial activities of other compounds of the present invention were determined in the same way as in Example 26.

Experiment [12] deals with Pseudomonas aeruginosa IFO3445. The experiment is described as above. In kind it is cell-based. Particulars: Pseudomonas aeruginosa IFO3445; agar dilution, 37°C for 16 hours; read-out: MIC. The protocol: as §1, §2, §3
Experiment [13] concerns Enterobacter cloacae 963. The description is as above. In kind it is cell-based. Particulars: Enterobacter cloacae 963; agar dilution, 37°C for 16 hours; read-out: MIC. How it is done: as §1, §2, §3
Experiment [14] concerns E.coli 81. Kind of experiment: Duration of antibiotic activity: survival of mice dosed before E.coli 81 infection. The class given is in vivo, ICR strain male mice. The protocol: The duration of antibiotic activity of compound (100) was determined.
Experiment was performed in ICR strain male mice (5W). The animals were used in a group of 10 per regimen. A solution of E.coli 81 was injected intrapenetreally at a dose of 5 x 10^5 cell/head. Before one or three hours, the compound (100) was injected subcutaneously at a dose of 0.5 mg/head. Survival mice were counted on day 4 after injection.

The test system of experiment [15] is E.coli 81. Kind of experiment: MIC in E.coli 81 (Table IV). The class given is cell-based. Particulars: Escherichia coli, 81, 16 h, read-out: MIC (μg/mℓ) in E.coli 81. How it is done: as §1, §2
For experiment [16], the system named is E.coli 81. Kind of experiment: In vivo antibacterial activity: survival of mice infected with E.coli 81. The arrangement: species or system ICR strain male mice. The protocol:
Experiment was performed in ICR strain male mice (5W) weighing 22 to 25 g. The animals were used in a group of 10 per regimen. Test organism, E.coli 81, was cultured on Mueller-Hinton agar over night at 37°C and suspended in saline to be one minimal lethal dose (5 x 10^5 cells/head). One mililitre of the bacterial suspension was injected intrapenetoreally and, after 15 minutes, mice were treated subcutaneously with various doses of compound (100) and comparative compound B. Survival mice were counted for 4 days and final observation was carried out on day 4.

Values after ≈ are worked out from the molar mass of the structure shown. A value given as a limit tells only on which side of the number the result lay.

For `CO/N=C(\C(=O)N[C@@H]1C(=O)N2C(C(=O)[O-])=C(C[N+]34CCCC3CCC4)CS[C@H]12)c1csc(N)n1` (stereo partly drawn) [Compound (100), (6R,7R)-7-[(Z)-2-(2-aminothiazol-4-yl)-2-meth-oxyiminoacetoamido]-3-(1-azabicyclo[3,3,0]octane-l-io)methyl-3-cephem-4-carboxylate], the MIC in experiment [1] is 0.39 µg/mL (≈ 0.77 µM); in experiment [2], below 0.0063 µg/mL; in experiment [3] it was 0.05 µg/mL (≈ 0.0987 µM); in experiment [4] it was 0.2 µg/mL (≈ 0.395 µM); in [5] it was 0.39 µg/mL (≈ 0.77 µM); in experiment [6], 0.05 µg/mL (≈ 0.0987 µM). The MIC in experiment [7] is below 0.0063 µg/mL; in experiment [8] it was below 0.0063 µg/mL; in experiment [9], 0.1 µg/mL (≈ 0.197 µM); in experiment [10], 0.025 µg/mL (≈ 0.0493 µM); in experiment [11], 0.39 µg/mL (≈ 0.77 µM); in experiment [12], 1.56 µg/mL (≈ 3.08 µM). In addition, the MIC in experiment [13] was found to be 0.05 µg/mL (≈ 0.0987 µM); in experiment [15], 0.025 µg/mL (≈ 0.0493 µM). Moreover, the “Survival percent (%) Injection before one hour” value in [14] (0.5 mg/head subcutaneously one hour before intraperitoneal E.coli 81 (5 x 10^5 cell/head), survival on day 4, mice) amounted to 100%. Further, the “Survival percent (%) Injection before three hours” value in experiment [14] (0.5 mg/head subcutaneously three hours before intraperitoneal E.coli 81 (5 x 10^5 cell/head), survival on day 4, mice) is listed as 100%. Moreover, in experiment [14] (conclusion in words drawn from Table IV), the “duration of antibiotic activity” value is on record as “excellent in duration of antibabiotic activity”. The “Survivals percent (%) on day 4” value in experiment [16] (Dose 0.016 mg/head subcutaneously 15 minutes after intraperitoneal E.coli 81 (5 x 10^5 cells/head)) was 40%; in experiment [16] (Dose 0.032 mg/head subcutaneously 15 minutes after intraperitoneal E.coli 81 (5 x 10^5 cells/head)) it was 40%; in experiment [16] (Dose 0.063 mg/head subcutaneously 15 minutes after intraperitoneal E.coli 81 (5 x 10^5 cells/head)), 50%; in experiment [16] (Dose 0.125 mg/head subcutaneously 15 minutes after intraperitoneal E.coli 81 (5 x 10^5 cells/head)) it was 100%; in [16] (Dose 0.25 mg/head subcutaneously 15 minutes after intraperitoneal E.coli 81 (5 x 10^5 cells/head)), 100%; in experiment [16] (Dose 0.5 mg/head subcutaneously 15 minutes after intraperitoneal E.coli 81 (5 x 10^5 cells/head)), 100%.
